The supplement of paper PMC10307832

Tests used:
Test in all cases: relative viability (nuclei count vs DMSO), 5 days (fraction); higher = more cells survive
[1] = compound: C1COCCN1C2=NC(=NC3=C2OC4=C3C=CC=N4)C5=CC(=CC=C5)NC(=O)C6=CN=C(C=C6)N + NC(=O)Nc1cc(-c2cccc(F)c2)sc1C(=O)N[C@H]1CCCNC1 [AZD7762] (partner 0.2 µM)
Method in brief: (§1)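 Nuclei were stained with Hoechst during a one-step fixation (final 0.05% Triton X-100, 1% formaldehyde, 1 ug/ml Hoechst) carried out 5 days after dosing, then counted on 4× images. The cells, lung cancer lines in 1536-well plates, had been dosed by pin tool the day after seeding with one drug alone or a fixed anchor-drug dose plus five library-drug doses (not always all listed) in √10 steps. Relative viability is the nuclei count in treated wells divided by that in vehicle wells, and each value is the median of duplicate plates.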

Entinostat + Olaparib = compound: Nc1ccccc1NC(=O)c1ccc(CNC(=O)OCc2cccnc2)cc1 [Entinostat] + O=C(c1cc(Cc2n[nH]c(=O)c3ccccc23)ccc1F)N1CCN(C(=O)C2CC2)CC1 [Olaparib] (partner 8 µM)
Method in brief: as §1

Entinostat + Trametinib = compound: Nc1ccccc1NC(=O)c1ccc(CNC(=O)OCc2cccnc2)cc1 [Entinostat] + CC(=O)Nc1cccc(-n2c(=O)n(C3CC3)c(=O)c3c(Nc4ccc(I)cc4F)n(C)c(=O)c(C)c32)c1 [Trametinib] (partner 0.02 µM)
Method in brief: as §1

[2] = compound: C1COCCN1C2=NC(=NC3=C2OC4=C3C=CC=N4)C5=CC(=CC=C5)NC(=O)C6=CN=C(C=C6)N + CS(=O)(=O)CCNCc1ccc(-c2ccc3ncnc(Nc4ccc(OCc5cccc(F)c5)c(Cl)c4)c3c2)o1 [Lapatinib] (partner 2 µM)
Method in brief: as §1

Cell Line | relative viability ([1]; first compound 0.02 µM) | relative viability ([1]; first compound 0.06325 µM) | relative viability ([1]; first compound 0.2 µM) | relative viability ([1]; first compound 0.6325 µM) | relative viability ([1]; first compound 2 µM) | relative viability (Entinostat + Olaparib; first compound 0.02 µM) | relative viability (Entinostat + Olaparib; first compound 0.06325 µM) | relative viability (Entinostat + Olaparib; first compound 0.2 µM) | relative viability (Entinostat + Olaparib; first compound 0.6325 µM) | relative viability (Entinostat + Olaparib; first compound 2 µM) | relative viability (Entinostat + Trametinib; first compound 0.02 µM) | relative viability (Entinostat + Trametinib; first compound 0.06325 µM) | relative viability (Entinostat + Trametinib; first compound 0.2 µM) | relative viability (Entinostat + Trametinib; first compound 0.6325 µM) | relative viability (Entinostat + Trametinib; first compound 2 µM) | relative viability ([2]; first compound 0.02 µM) | relative viability ([2]; first compound 0.06325 µM) | relative viability ([2]; first compound 0.2 µM) | relative viability ([2]; first compound 0.6325 µM) | relative viability ([2]; first compound 2 µM)
HOP-62 | 0.732 | 0.494 | 0.434 | 0.633 | 0.291 | 0.36 | 0.391 | 0.373 | 0.147 | 0.128 | 0.412 | 0.435 | 0.392 | 0.351 | 0.18 | 0.945 | 1.42 | 1.06 | 0.925 | 0.531
LC-2-ad | 0.939 | 0.9 | 0.831 | 0.805 | 0.585 | 0.785 | 0.635 | 0.633 | 0.527 | 0.3 | 0.894 | 0.883 | 0.83 | 0.698 | 0.479 | 0.948 | 0.939 | 0.968 | 1.03 | 0.537
LCLC-97TM1 | 0.19 | 0.236 | 0.231 | 0.258 | 0.256 | 0.476 | 0.402 | 0.41 | 0.32 | 0.364 | 0.233 | 0.207 | 0.214 | 0.152 | 0.139 | – | 1.25 | 1.15 | 0.892 | 0.761
LK-2 | 0.427 | 0.406 | 0.378 | 0.416 | 0.221 | 0.857 | 0.904 | 0.584 | 0.475 | 0.239 | 0.778 | 0.686 | 0.652 | 0.447 | 0.349 | 1.14 | 1.11 | 0.828 | 0.776 | 0.563
LOU-NH91 | 0.733 | 0.793 | 0.734 | 0.748 | 0.59 | 0.863 | 0.904 | 0.919 | 0.806 | 0.676 | 0.777 | 0.771 | 0.804 | 0.739 | 0.674 | 0.764 | 0.826 | 0.725 | 0.769 | 0.715
LU99A | 0.433 | 0.416 | 0.233 | 0.319 | 0.295 | 0.236 | 0.264 | 0.274 | 0.198 | 0.164 | 0.599 | 0.615 | 0.504 | 0.471 | 0.378 | 1.1 | 1.04 | 0.92 | 0.64 | 0.35
LXF-289 | 1.08 | 1.3 | 1.08 | 1.09 | 0.67 | 1.07 | 0.978 | 0.875 | 0.714 | 0.523 | 0.642 | 0.653 | 0.652 | 0.408 | 0.453 | 0.939 | 0.97 | 0.99 | 0.9 | 0.696
NCI-H23 | 0.241 | 0.23 | 0.24 | 0.174 | 0.216 | 0.282 | 0.242 | 0.237 | 0.179 | 0.12 | 0.411 | 0.475 | 0.483 | 0.394 | 0.215 | 1.43 | 1.15 | 1.18 | 0.988 | 0.719
NCI-H322M | 0.543 | 0.49 | 0.575 | 0.56 | 0.516 | 0.722 | 0.952 | 0.887 | 0.815 | 0.618 | 0.546 | 0.534 | 0.542 | 0.525 | 0.502 | 0.553 | 0.574 | 0.506 | 0.604 | 0.45
NCI-H358 | 0.442 | 0.475 | 0.443 | 0.465 | 0.409 | 0.574 | 0.649 | 0.593 | 0.342 | 0.172 | 0.175 | 0.164 | 0.135 | 0.117 | 0.127 | 0.438 | 0.45 | 0.34 | 0.387 | 0.355
NCI-H460 | 0.609 | 0.784 | 0.587 | 0.653 | 0.359 | 0.37 | 0.328 | 0.137 | 0.0676 | 0.0406 | 0.226 | 0.0831 | 0.0851 | 0.0455 | 0.0239 | 0.907 | 1.12 | 1.11 | 0.578 | 0.0915
NCI-H596 | 1.15 | 1.06 | 0.97 | 1.06 | 0.929 | 0.748 | 0.662 | 0.667 | 0.558 | 0.405 | 0.748 | 0.638 | 0.807 | 0.649 | 0.459 | 0.997 | 1.04 | 1 | 0.997 | 0.765
NCI-H647 | 0.481 | 0.627 | 0.373 | 0.527 | 0.359 | 0.522 | 0.333 | 0.426 | 0.0646 | 0.0559 | 0.48 | 0.398 | 0.525 | 0.322 | 0.133 | 1.11 | 1.22 | 0.965 | 0.868 | 0.275
NCI-H650 | 1.08 | 1 | 0.993 | 0.809 | 0.852 | 0.43 | 0.425 | 0.363 | 0.21 | 0.171 | 1.06 | 1 | 0.917 | 0.708 | 0.487 | 0.913 | 0.915 | 0.891 | 1.02 | 0.517
NCI-H727 | 0.528 | 0.678 | 0.812 | 0.602 | 0.755 | 0.73 | 0.735 | 0.642 | 0.677 | 0.532 | 0.368 | 0.365 | 0.347 | 0.331 | 0.273 | 0.829 | 0.753 | 0.742 | 0.722 | 0.686
NCI-H838 | 0.95 | 0.967 | 0.999 | 0.827 | 0.755 | 0.819 | 0.79 | 0.759 | 0.452 | 0.201 | 0.531 | 0.548 | 0.626 | 0.395 | 0.167 | 0.725 | 1.06 | 0.895 | 0.705 | 0.53
NCI-H1355 | 0.875 | 0.765 | 0.713 | 0.66 | 0.539 | 0.669 | 0.698 | 0.647 | 0.535 | 0.356 | 0.443 | 0.402 | 0.337 | 0.344 | 0.243 | 0.95 | 1.01 | 0.997 | 0.936 | 0.814
NCI-H1395 | 0.387 | 0.348 | 0.374 | 0.371 | 0.372 | 0.445 | 0.466 | 0.423 | 0.398 | 0.408 | 1.08 | 1.09 | 0.977 | 0.79 | 0.699 | 0.782 | 1.13 | 0.91 | 0.983 | 0.831
NCI-H1437 | 1.1 | 1.07 | 1.12 | 1.13 | 0.91 | 0.491 | 0.378 | 0.309 | 0.228 | 0.196 | 0.406 | 0.31 | 0.276 | 0.276 | 0.221 | 0.801 | 0.952 | 0.746 | 0.794 | 0.327
NCI-H1651 | 0.507 | 0.563 | 0.476 | 0.461 | 0.36 | 0.2 | 0.199 | 0.199 | 0.174 | 0.154 | 0.931 | 0.844 | 0.844 | 0.745 | 0.606 | 0.975 | 0.839 | 0.786 | 0.84 | 0.614
NCI-H1666 | 0.91 | 0.827 | 0.861 | 0.757 | 0.811 | 0.81 | 0.759 | 0.723 | 0.669 | 0.539 | 0.817 | 0.883 | 0.763 | 0.611 | 0.572 | 0.708 | 0.598 | 0.56 | 0.648 | 0.434
NCI-H1734 | 0.661 | 0.612 | 0.497 | 0.498 | 0.422 | 0.0279 | 0.637 | 0.621 | 0.563 | 0.356 | 0.707 | 0.711 | 0.759 | 0.6 | 0.477 | 1.18 | 1.09 | 0.935 | 0.902 | 0.558
NCI-H1755 | 0.45 | 0.4 | 0.397 | 0.414 | 0.348 | 0.877 | 0.816 | 0.598 | 0.458 | 0.377 | 0.721 | 0.751 | 0.605 | 0.565 | 0.44 | 1.09 | 1.12 | 1.05 | 1.02 | 0.653
NCI-H1792 | 0.593 | 0.707 | 0.509 | 0.544 | 0.386 | 0.488 | 0.358 | 0.483 | 0.133 | 0.0504 | 0.479 | 0.431 | 0.366 | 0.442 | 0.155 | 0.882 | 0.904 | 0.874 | 0.925 | 0.376
NCI-H1793 | 0.723 | 0.457 | 0.357 | 0.298 | 0.279 | 0.929 | 0.959 | 0.743 | 0.681 | 0.236 | 0.465 | 0.387 | 0.31 | 0.304 | 0.292 | 0.884 | 0.971 | 0.575 | 0.56 | 0.405
NCI-H1915 | 0.72 | 0.767 | 0.716 | 0.726 | 0.664 | 0.244 | 0.274 | 0.23 | 0.21 | 0.144 | 0.314 | 0.311 | 0.289 | 0.246 | 0.229 | 0.955 | 1.04 | 1.03 | 1.01 | 0.443
